Reference: publication PMC7179112, “Antimicrobial, Antioxidant, and Anticancer Activities of Some Novel Isoxazole Ring Containing Chalcone and Dihydropyrazole Derivatives” (Molecules, 2020)
Converted amounts (≈) assume the structure as drawn.

Tests used:
Pseudomonas aeruginosa = experiment: Antibacterial activity, serial tube dilution method; assay type: cell-based; conditions: Pseudomonas aeruginosa; Gram-negative; serial tube dilution; read-out: MIC P aeruginosa
Protocol: (§1) The target chalcones (17–31) and pyrazolines (32–46) were tested for their antimicrobial activities by serial tube dilution method against two types of bacterial and fungal strains (Table 1 and Table 2). The bacterial strains used for the testing, including Gram-positive Staphylococcus aureus and Gram-negative Pseudomonas aeruginosa, whereas the fungal strains employed were Aspergillus niger and Candida tropicalis.
(§2) The antibacterial and antifungal activity of the novel chalcones (17 to 31) and dihydropyrazoles (32 to 46) against the selected bacterial and fungal strains was assessed by following the procedure described in our previous paper.

Staphylococcus aureus = experiment: as above; assay type: cell-based; conditions: Staphylococcus aureus; Gram-positive; serial tube dilution; read-out: MIC S aureus
Protocol: as §1, §2

Aspergillus niger = experiment: Antifungal activity, serial tube dilution method; assay type: cell-based
Protocol: as §1, §2

Candida tropicalis = experiment: Antifungal activity, serial tube dilution method; assay type: cell-based; conditions: read-out: MIC C tropicalis
Protocol: as §1, §2

[1] = test system: prostate cancer cell line, DU-145; experiment: MTT assay anticancer activity; assay type: cell-based; conditions: Homo sapiens, MTT assay, mean ± SD (n = 3)
Protocol: All the 30 compounds were evaluated for their anticancer potency against the prostate cancer cell line, DU-145, employing colorimetric tetrazolium dye (MTT) assay. […] Among the disubstituted series 20–25, substitution at position 3 and 4 (compound 24) produced the best activity but was lower than the standard. […] Similar phenomena can be seen among the dihydropyrazole series.
The in vitro anticancer activity of chalcones (17 to 31) and dihydropyrazoles (32 to 46) was evaluated by the Mosmann’s MTT assay as described previously.

Human Normal Cells (L02) = experiment: MTT assay toxicity on normal cells; assay type: cell-based
[2] = DPPH free radical scavenging assay; conditions: antioxidant activity; average of three independent experiments
Protocol: The antioxidant activity of all 30 compounds was assessed using 1,1-diphenyl-2-picrylhydrazine (DPPH) free radical scavenging assay and the results are the average of three independent experiments (Table 3). Gallic acid was employed as a positive control. […] In the disubstituted series (20–25), compound 25 with substitutions at position 3 and 5 on the phenyl ring gave the highest activity of 9 µg/mL.
The purpose of this study was to evaluate the antioxidant activity of chalcones and pyrazolines using the DPPH free radical assay. The percentage of antioxidant activity (AA%) of all the compounds was assessed by the DPPH free radical assay. The measurement of the DPPH radical scavenging activity was performed according to methodology described by Brand-Williams et al. The samples were reacted with the stable DPPH radical in an ethanol solution. A 0.1 mM solution of DPPH was prepared by dissolving DPPH in methanol. Gallic acid was taken as a reference standard and different concentrations of test samples (5–100 µg/mL) and standard (1.0, 2.5, and 5.0 µg/mL) were prepared using methanol. One milliliter of 0.1 mM DPPH solution was added to 3 mL of all concentrations of test samples and standard separately. These mixtures were kept in dark for about 30 min and the absorbance was measured at 517 nm. The capability to scavenge the DPPH radical was calculated using the formula:(1) DPPH scavanged (%)= Absorbance of control−Absorbance of sample/Absorbance of control∗100 when DPPH reacted with an antioxidant compound and was reduced, the change in color (from deep violet to light yellow) was read [Absorbance (Abs)] at 517 nm after […] of reaction using a UV-VIS spectrophotometer.

[3] = test system: Aspergillus niger and Candida tropicalis; experiment: Antifungal activity (strain not named); assay type: cell-based; conditions: text/figure value, strain not named
Protocol: as §1, §2

[4] = test system: Staphylococcus aureus and Pseudomonas aeruginosa; experiment: Antibacterial activity (strain not named); assay type: cell-based; conditions: text/figure value, strain not named
Protocol: as §1, §2

SMILES | MIC (Pseudomonas aeruginosa) | MIC (Staphylococcus aureus) | MIC (Aspergillus niger) | MIC (Candida tropicalis) | IC50 [1] | DPPH assay IC50 [2] | MIC [3] | MIC [4] | antibacterial MIC [4] | IC50 (Human Normal Cells (L02))
O=C(O)c1cn(C2CC2)c2cc(N3CCNCC3)c(F)cc2c1=O [Ciprofloxacin, reference compound] | 2 µg/mL (≈ 6.04 µM) | 2 µg/mL (≈ 6.04 µM) |  |  |  |  |  |  |  | 
COc1ccc(/C=C/C(=O)c2ccno2)cc1 [Compound 17] | 8 µg/mL (≈ 34.9 µM) | 4 µg/mL (≈ 17.4 µM) | 8 µg/mL (≈ 34.9 µM) | 8 µg/mL (≈ 34.9 µM) | 32 ± 2 µg/mL (≈ 140 µM) | 33 ± 1 µg/mL |  |  |  | > 40 µg/mL
COc1ccccc1/C=C/C(=O)c1ccno1 [Compound 19] | 4 µg/mL (≈ 17.4 µM) | 4 µg/mL (≈ 17.4 µM) | 8 µg/mL (≈ 34.9 µM) | 16 µg/mL (≈ 69.8 µM) | 36 ± 1 µg/mL (≈ 157 µM) | 32 ± 2 µg/mL |  |  |  | > 40 µg/mL
COc1cc(OC)c(/C=C/C(=O)c2ccno2)c(OC)c1 [Compound 28] | 1 µg/mL (≈ 3.46 µM) | 1 µg/mL (≈ 3.46 µM) | 2 µg/mL (≈ 6.91 µM) | 2 µg/mL (≈ 6.91 µM) | 30 ± 2 µg/mL (≈ 104 µM) | 5 ± 1 µg/mL | 2 µg/mL (≈ 6.91 µM) | 1 µg/mL (≈ 3.46 µM) | 1 µg/mL | > 40 µg/mL
COc1cc(Cl)c(/C=C/C(=O)c2ccno2)c(OC)c1 [Compound 31] | 2 µg/mL (≈ 6.81 µM) | 2 µg/mL (≈ 6.81 µM) | 4 µg/mL (≈ 13.6 µM) | 4 µg/mL (≈ 13.6 µM) | 16 ± 2 µg/mL (≈ 54.5 µM) | 48 ± 1 µg/mL |  |  |  | > 40 µg/mL
COc1ccc(C2CC(c3ccno3)=NN2C(N)=O)cc1 (stereo not shown) [Compound 32] | 16 µg/mL (≈ 55.9 µM) | 16 µg/mL (≈ 55.9 µM) | 4 µg/mL (≈ 14 µM) | 4 µg/mL (≈ 14 µM) | 28 ± 1 µg/mL (≈ 97.8 µM) | 44 ± 1 µg/mL | 4 µg/mL (≈ 14 µM) |  |  | > 40 µg/mL
COc1cccc(C2CC(c3ccno3)=NN2C(N)=O)c1 (stereo not shown) [Compound 33] | 128 µg/mL (≈ 447 µM) | 128 µg/mL (≈ 447 µM) | 64 µg/mL (≈ 224 µM) | 64 µg/mL (≈ 224 µM) | 18 ± 2 µg/mL (≈ 62.9 µM) | 51 ± 2 µg/mL |  |  |  | > 40 µg/mL

Now from value to molecule, other results behind:

MIC (Pseudomonas aeruginosa) | MIC (Staphylococcus aureus) | MIC (Aspergillus niger) | MIC (Candida tropicalis) | IC50 [1] | DPPH assay IC50 [2] | MIC [3] | MIC [4] | antibacterial MIC [4] | SMILES | IC50 (Human Normal Cells (L02))
64 µg/mL (≈ 247 µM) | 32 µg/mL (≈ 123 µM) | 64 µg/mL (≈ 247 µM) | 32 µg/mL (≈ 123 µM) | 22 ± 1 µg/mL (≈ 84.9 µM) | 24 ± 1 µg/mL |  |  |  | COc1cccc(/C=C/C(=O)c2ccno2)c1OC [Compound 20] | > 40 µg/mL
4 µg/mL (≈ 15.4 µM) | 2 µg/mL (≈ 7.71 µM) | 8 µg/mL (≈ 30.9 µM) | 16 µg/mL (≈ 61.7 µM) | 29 ± 2 µg/mL (≈ 112 µM) | 18 ± 2 µg/mL |  |  |  | COc1ccc(/C=C/C(=O)c2ccno2)c(OC)c1 [Compound 21] | > 40 µg/mL
32 µg/mL (≈ 123 µM) | 32 µg/mL (≈ 123 µM) | 64 µg/mL (≈ 247 µM) | 64 µg/mL (≈ 247 µM) | 38 ± 1 µg/mL (≈ 147 µM) | 26 ± 2 µg/mL |  |  |  | COc1ccc(OC)c(/C=C/C(=O)c2ccno2)c1 [Compound 22] | > 40 µg/mL
4 µg/mL (≈ 15.4 µM) | 4 µg/mL (≈ 15.4 µM) | 4 µg/mL (≈ 15.4 µM) | 4 µg/mL (≈ 15.4 µM) | 33 ± 2 µg/mL (≈ 127 µM) | 16 ± 1 µg/mL |  |  |  | COc1cccc(OC)c1/C=C/C(=O)c1ccno1 [Compound 23] | > 40 µg/mL
32 µg/mL (≈ 123 µM) | 64 µg/mL (≈ 247 µM) | 128 µg/mL (≈ 494 µM) | 64 µg/mL (≈ 247 µM) | 6 ± 2 µg/mL (≈ 23.1 µM) | 29 ± 1 µg/mL |  |  |  | COc1ccc(/C=C/C(=O)c2ccno2)cc1OC [Compound 24] | > 40 µg/mL
16 µg/mL (≈ 55.3 µM) | 16 µg/mL (≈ 55.3 µM) | 32 µg/mL (≈ 111 µM) | 32 µg/mL (≈ 111 µM) | 26 ± 3 µg/mL (≈ 89.9 µM) | 7 ± 2 µg/mL |  |  |  | COc1cc(OC)c(OC)cc1/C=C/C(=O)c1ccno1 [Compound 27] | > 40 µg/mL
4 µg/mL (≈ 14.4 µM) | 4 µg/mL (≈ 14.4 µM) | 16 µg/mL (≈ 57.7 µM) | 16 µg/mL (≈ 57.7 µM) | 5 ± 2 µg/mL (≈ 18 µM) | 45 ± 2 µg/mL |  |  |  | COc1ccc(/C=C/C(=O)c2ccno2)c(F)c1OC [Compound 30] | > 40 µg/mL
